How the values were obtained:
Assay type in all cases: in vivo
[1] = tested on: redroot pigweed (Amaranthus retroflexus); test: Test G Post-Emergence Protocol; settings: Amaranthus retroflexus, post-emergence, 312 h, read-out: Pigweed, Redroot damage rating; for pest or weed control at 15.625 g/ha: 15.625 g ai/ha, evaluated after 13 days (100=total damage to plant; 0=no damage to plant); for pest or weed control at 62.5 g/ha: 62.5 g ai/ha; for pest or weed control at 62.5 g/ha / pest or weed control at 250 g/ha: evaluated after 13 days, 100=total damage to plant, 0=no damage to plant; for pest or weed control at 250 g/ha: 250 g ai/ha
Procedure, shortened: (§1)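 Pot-grown seedlings, 8 days old, raised in a glasshouse at 24/16 °C day/night with 14 h light and 65% humidity, were sprayed post-emergence with test compound in acetone/water (50:50) plus 0.5% Tween 20 at 15.625, 62.5 or 250 g/ha. Damage was scored visually 13 days later on a 0–100 scale (100 = total damage).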

[2] = tested on: velvetleaf (Abutilon theophrasti); test: Test G Post-Emergence Protocol; settings: Abutilon theophrasti, post-emergence, 312 h, read-out: Velvetleaf damage rating; for pest or weed control at 15.625 g/ha: 15.625 g ai/ha, evaluated after 13 days (100=total damage to plant; 0=no damage to plant); for pest or weed control at 62.5 g/ha: 62.5 g ai/ha; for pest or weed control at 62.5 g/ha / pest or weed control at 250 g/ha: evaluated after 13 days, 100=total damage to plant, 0=no damage to plant; for pest or weed control at 250 g/ha: 250 g ai/ha
Procedure, shortened: as §1

[3] = tested on: barnyardgrass (Echinochloa crus-galli); test: Test G Post-Emergence Protocol; settings: Echinochloa crus-galli, post-emergence, 312 h, read-out: Barnyardgrass damage rating; for pest or weed control at 15.625 g/ha: 15.625 g ai/ha, evaluated after 13 days (100=total damage to plant; 0=no damage to plant); for pest or weed control at 62.5 g/ha: 62.5 g ai/ha; for pest or weed control at 62.5 g/ha / pest or weed control at 250 g/ha: evaluated after 13 days, 100=total damage to plant, 0=no damage to plant; for pest or weed control at 250 g/ha: 250 g ai/ha
Procedure, shortened: as §1

[4] = tested on: giant foxtail (Setaria faberi); test: Test G Post-Emergence Protocol; settings: Setaria faberi, post-emergence, 312 h, read-out: Foxtail, Giant damage rating; for pest or weed control at 15.625 g/ha: 15.625 g ai/ha, evaluated after 13 days (100=total damage to plant; 0=no damage to plant); for pest or weed control at 62.5 g/ha: 62.5 g ai/ha; for pest or weed control at 62.5 g/ha / pest or weed control at 250 g/ha: evaluated after 13 days, 100=total damage to plant, 0=no damage to plant; for pest or weed control at 250 g/ha: 250 g ai/ha
Procedure, shortened: as §1

corn (Zea mays) [5] = test: Test G Post-Emergence Protocol; settings: Zea mays, post-emergence, 312 h, read-out: Corn damage rating; for plant injury at 15.625 g/ha: 15.625 g ai/ha, evaluated after 13 days (100=total damage to plant; 0=no damage to plant); for plant injury at 62.5 g/ha: 62.5 g ai/ha; for plant injury at 62.5 g/ha / plant injury at 250 g/ha: evaluated after 13 days, 100=total damage to plant, 0=no damage to plant; for plant injury at 250 g/ha: 250 g ai/ha
Procedure, shortened: as §1

[6] = tested on: ivy-leaved morning glory (Ipomoea hederacea); test: Test G Post-Emergence Protocol; settings: Ipomoea, post-emergence, 312 h, read-out: Morningglory, Ivy-leaved damage rating; for pest or weed control at 15.625 g/ha: 15.625 g ai/ha, evaluated after 13 days (100=total damage to plant; 0=no damage to plant); for pest or weed control at 62.5 g/ha: 62.5 g ai/ha; for pest or weed control at 62.5 g/ha / pest or weed control at 250 g/ha: evaluated after 13 days, 100=total damage to plant, 0=no damage to plant; for pest or weed control at 250 g/ha: 250 g ai/ha
Procedure, shortened: as §1

[7] = tested on: redroot pigweed (Amaranthus retroflexus); test: Test G Pre-Emergence Protocol; settings: Amaranthus retroflexus, pre-emergence, 312 h, evaluated after 13 days; for pest or weed control at 15.625 g/ha: 15.625 g ai/ha; for pest or weed control at 15.625 g/ha / pest or weed control at 250 g/ha: read-out: Pigweed, Redroot damage rating (100=total damage to plant; 0=no damage to plant); for pest or weed control at 62.5 g/ha: 62.5 g ai/ha, 100=total damage to plant, 0=no damage to plant, read-out: Pigweed, Redroot damage rating; for pest or weed control at 250 g/ha: 250 g ai/ha
Procedure, shortened: (§2)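 Pre-emergence spray, 15.625/62.5/250 g/ha, vehicle acetone:water 50:50 + 0.5% Tween 20, applied 1 d after sowing. Glasshouse 24/16° C, 14 h light, 65% RH, watered twice daily. Visual damage rating at 13 d, 0–100 scale.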

[8] = tested on: velvetleaf (Abutilon theophrasti); test: Test G Pre-Emergence Protocol; settings: Abutilon theophrasti, pre-emergence, 312 h, evaluated after 13 days; for pest or weed control at 15.625 g/ha: 15.625 g ai/ha; for pest or weed control at 15.625 g/ha / pest or weed control at 250 g/ha: read-out: Velvetleaf damage rating (100=total damage to plant; 0=no damage to plant); for pest or weed control at 62.5 g/ha: 62.5 g ai/ha, 100=total damage to plant, 0=no damage to plant, read-out: Velvetleaf damage rating; for pest or weed control at 250 g/ha: 250 g ai/ha
Procedure, shortened: as §2

[9] = tested on: barnyardgrass (Echinochloa crus-galli); test: Test G Pre-Emergence Protocol; settings: Echinochloa crus-galli, pre-emergence, 312 h, evaluated after 13 days; for pest or weed control at 15.625 g/ha: 15.625 g ai/ha; for pest or weed control at 15.625 g/ha / pest or weed control at 250 g/ha: read-out: Barnyardgrass damage rating (100=total damage to plant; 0=no damage to plant); for pest or weed control at 62.5 g/ha: 62.5 g ai/ha, 100=total damage to plant, 0=no damage to plant, read-out: Barnyardgrass damage rating; for pest or weed control at 250 g/ha: 250 g ai/ha
Procedure, shortened: as §2

[10] = tested on: giant foxtail (Setaria faberi); test: Test G Pre-Emergence Protocol; settings: Setaria faberi, pre-emergence, 312 h, evaluated after 13 days; for pest or weed control at 15.625 g/ha: 15.625 g ai/ha; for pest or weed control at 15.625 g/ha / pest or weed control at 250 g/ha: read-out: Foxtail, Giant damage rating (100=total damage to plant; 0=no damage to plant); for pest or weed control at 62.5 g/ha: 62.5 g ai/ha, 100=total damage to plant, 0=no damage to plant, read-out: Foxtail, Giant damage rating; for pest or weed control at 250 g/ha: 250 g ai/ha
Procedure, shortened: as §2

corn (Zea mays) [11] = test: Test G Pre-Emergence Protocol; settings: Zea mays, pre-emergence, 312 h, evaluated after 13 days; for plant injury at 15.625 g/ha: 15.625 g ai/ha; for plant injury at 15.625 g/ha / plant injury at 250 g/ha: read-out: Corn damage rating (100=total damage to plant; 0=no damage to plant); for plant injury at 62.5 g/ha: 62.5 g ai/ha, 100=total damage to plant, 0=no damage to plant, read-out: Corn damage rating; for plant injury at 250 g/ha: 250 g ai/ha
Procedure, shortened: as §2

[12] = tested on: ivy-leaved morning glory (Ipomoea hederacea); test: Test G Pre-Emergence Protocol; settings: Ipomoea, pre-emergence, 312 h, evaluated after 13 days; for pest or weed control at 15.625 g/ha: 15.625 g ai/ha; for pest or weed control at 15.625 g/ha / pest or weed control at 250 g/ha: read-out: Morningglory, Ivy-leaved damage rating (100=total damage to plant; 0=no damage to plant); for pest or weed control at 62.5 g/ha: 62.5 g ai/ha, 100=total damage to plant, 0=no damage to plant, read-out: Morningglory, Ivy-leaved damage rating; for pest or weed control at 250 g/ha: 250 g ai/ha
Procedure, shortened: as §2

Row | SMILES | pest or weed control at 15.625 g/ha [1] [%] | pest or weed control at 62.5 g/ha [1] [%] | pest or weed control at 250 g/ha [1] [%] | pest or weed control at 15.625 g/ha [2] [%] | pest or weed control at 62.5 g/ha [2] [%] | pest or weed control at 250 g/ha [2] [%] | pest or weed control at 15.625 g/ha [3] [%] | pest or weed control at 62.5 g/ha [3] [%] | pest or weed control at 250 g/ha [3] [%] | pest or weed control at 15.625 g/ha [4] [%] | pest or weed control at 62.5 g/ha [4] [%] | pest or weed control at 250 g/ha [4] [%] | plant injury at 15.625 g/ha (corn (Zea mays) [5]) [%] | plant injury at 62.5 g/ha (corn (Zea mays) [5]) [%] | plant injury at 250 g/ha (corn (Zea mays) [5]) [%] | pest or weed control at 15.625 g/ha [6] [%] | pest or weed control at 62.5 g/ha [6] [%] | pest or weed control at 250 g/ha [6] [%] | pest or weed control at 15.625 g/ha [7] [%] | pest or weed control at 62.5 g/ha [7] [%] | also measured
1 | CN1CC(c2ccc(C(F)(F)F)c(C(F)(F)F)c2)C(C(=O)Nc2cccc(F)c2F)C1=O (stereo not drawn) [Compound 1714] | 70 | 80 | 90 | 0 | 30 | 40 | 40 | 70 | 80 | 70 | 80 | 80 | 20 | 30 | 50 | 10 | 20 | 60 | 0 | 0 | pest or weed control at 250 g/ha [7]: 10%; pest or weed control at 15.625 g/ha [8]: 0%; pest or weed control at 62.5 g/ha [8]: 0%; pest or weed control at 250 g/ha [8]: 0%; pest or weed control at 15.625 g/ha [9]: 0%; pest or weed control at 62.5 g/ha [9]: 50%; pest or weed control at 250 g/ha [9]: 80%; pest or weed control at 15.625 g/ha [10]: 30%; pest or weed control at 62.5 g/ha [10]: 70%; pest or weed control at 250 g/ha [10]: 80%; plant injury at 15.625 g/ha (corn (Zea mays) [11]): 0%; plant injury at 62.5 g/ha (corn (Zea mays) [11]): 0%; plant injury at 250 g/ha (corn (Zea mays) [11]): 10%; pest or weed control at 15.625 g/ha [12]: 0%; pest or weed control at 62.5 g/ha [12]: 0%; pest or weed control at 250 g/ha [12]: 10%
2 | CCOc1c(Cl)cc(C2CN(C)C(=O)C2C(=O)Nc2cccc(F)c2F)cc1OC (stereo not drawn) [Compound 1721] | 0 | 0 | 0 | 0 | 0 | 0 | 0 | 30 | 80 | 0 | 50 | 80 | 0 | 10 | 10 | 0 | 40 | 70 | 0 | 0 | pest or weed control at 250 g/ha [7]: 0%; pest or weed control at 15.625 g/ha [8]: 0%; pest or weed control at 62.5 g/ha [8]: 0%; pest or weed control at 250 g/ha [8]: 0%; pest or weed control at 15.625 g/ha [9]: 0%; pest or weed control at 62.5 g/ha [9]: 50%; pest or weed control at 250 g/ha [9]: 80%; pest or weed control at 15.625 g/ha [10]: 30%; pest or weed control at 62.5 g/ha [10]: 60%; pest or weed control at 250 g/ha [10]: 90%; plant injury at 15.625 g/ha (corn (Zea mays) [11]): 10%; plant injury at 62.5 g/ha (corn (Zea mays) [11]): 0%; plant injury at 250 g/ha (corn (Zea mays) [11]): 0%; pest or weed control at 15.625 g/ha [12]: 0%; pest or weed control at 62.5 g/ha [12]: 0%; pest or weed control at 250 g/ha [12]: 0%

Reference: US12077503B2, “Substituted cyclic amides and their use as herbicides” (FMC CORPORATION, priority 2015, dated 2024)
